One data set addresses T1, human M3 receptors (Homo sapiens, UniProt P20309).
T1 construct: expressed in transfected cells; host or cells: Chinese hamster ovary cells (membranes)
Nature of the data set: hM3 receptor radioligand binding ([3H]NMS). The following applies: for Ki: pKi reported on a scale of 1 through 5, read-out: M3 (pKi) (converted); for affinity to M3 receptors: in words. The procedure, abridged:
(§1)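 Membranes/tissue + radioligand (single conc., equilibrium) + test cpd concentration range; filtration separation; NSB via known receptor blocker; NSB-corrected displacement curves analysed.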

The nature of data set [1]: Metabolism in pooled human liver microsomes. It is filed as in vitro ADME. The following applies: for HLMs Enzyme: enzyme type metabolising the compound in HLMs (with/without NADPH); for half-life: pH 7.4, pooled human liver microsomes, disappearance of parent, read-out: HLMs t1/2. How it is done:
Compounds were incubated in pooled human liver microsomes (HLMs) in the presence or absence of an NADPH-generating system. NADPH is required for the activity of cytochrome P450 (CYP) and other oxidative enzymes present in HLMs, but not for esterase activity. An additional incubation was carried out in the absence of HLM to assess compound stability. The disappearance of parent and the appearance of the corresponding acid metabolite were monitored over the time course of the incubations using LC-MS/MS.
A stock solution (20 mM) of each proprietary compound in DMSO was prepared and stored at −20° C. until needed. A working stock solution (0.2 mM) was prepared for each proprietary compound by adding an aliquot of the stock solution (10 μL) to acetonitrile (990 μL).
An aliquot of the HLM solution was removed from the −80° C. freezer and placed on ice. Tris Buffer (50 mM, pH 7.4) containing MgCl2 (hexahydrate, 5 mM) was pre-incubated in a 37° C. water bath. A set of Eppendorf microfuge tubes (1.5 mL) was appropriately labeled. To each tube was added Tris buffer with or without the NADPH generating system. An aliquot of pooled HLMs was added to all the incubations except those that were the buffer control.
Tubes were preincubated for 5 min in a shaking incubator bath (37° C., 900 rpm) and the reaction was initiated by adding an aliquot of the proprietary working solution (5 μL). The additions were timed carefully in order to coordinate the sample collections below. A small aliquot (50 μL) was removed at […] and delivered to the respective tubes containing dextrorphan (100 μL of 0.5 μg/mL solution) dissolved in methanol or acetonitrile. The samples were centrifuged at 14000 g for 15 minutes at 4° C. The supernatant was transferred to clean labeled HPLC injection vials and stored at −80° C. until analyzed. An aliquot of the supernatant (25 μL) was added to water (75 μL), mixed and injected onto the LC-MS/MS system for analysis. Results for some compounds of the invention can be found below in the table in Example 20.
For orientation: Liver microsomes are a subcellular fraction often used to study metabolism.

In another data set the test system is pig liver esterase. Nature of the data set: Metabolism by pig liver esterase with and without human plasma proteins. It is filed as in vitro ADME. How it is done:
The esterase-mediated metabolism of these compounds was studied using commercially available pig liver esterase in the presence and absence of human plasma proteins. The disappearance of parent was monitored over the time course of the incubations using a LC-UV detection system.
A stock solution and working stock solution was prepared for each proprietary compound as described for the human liver microsomal incubations. Working solutions of pig liver esterase in potassium phosphate buffer (10 mM, pH 7.4) and pig liver esterase in human plasma protein were prepared by dissolving pig liver esterase (2.51 mg) in the phosphate buffer or plasma protein solutions, respectively.
A set of three Eppendorf microfuge tubes (1.5 mL) was appropriately labeled. To each tube was added 1.5 mL of phosphate buffer, pig liver esterase in buffer, or pig liver esterase in human plasma protein solution. These solutions were pre-incubated (37° C., 900 rpm) and the reactions were initiated by adding an aliquot (37.5 μL) of the working solution of proprietary compound to each tube. An aliquot (100 μL) from each tube was removed at time 0, 5, 30, 60, and 120 min and added to a tube containing acetonitrile (200 μL) to stop the reaction.
The samples were centrifuged at 14000 g for 15 minutes at 4° C. The supernatant was transferred to clean labeled HPLC injection vials and stored at −80° C. until analyzed. An aliquot of the supernatant (25 μL) was injected onto the LC-UV system for analysis.

A further data set deals with T2, human 5HT7 receptors (Homo sapiens, UniProt P34969).
T2 construct: expressed in transfected cells; host or cells: Chinese hamster ovary cells (membranes)
T2 sequence (P34969 whole entry): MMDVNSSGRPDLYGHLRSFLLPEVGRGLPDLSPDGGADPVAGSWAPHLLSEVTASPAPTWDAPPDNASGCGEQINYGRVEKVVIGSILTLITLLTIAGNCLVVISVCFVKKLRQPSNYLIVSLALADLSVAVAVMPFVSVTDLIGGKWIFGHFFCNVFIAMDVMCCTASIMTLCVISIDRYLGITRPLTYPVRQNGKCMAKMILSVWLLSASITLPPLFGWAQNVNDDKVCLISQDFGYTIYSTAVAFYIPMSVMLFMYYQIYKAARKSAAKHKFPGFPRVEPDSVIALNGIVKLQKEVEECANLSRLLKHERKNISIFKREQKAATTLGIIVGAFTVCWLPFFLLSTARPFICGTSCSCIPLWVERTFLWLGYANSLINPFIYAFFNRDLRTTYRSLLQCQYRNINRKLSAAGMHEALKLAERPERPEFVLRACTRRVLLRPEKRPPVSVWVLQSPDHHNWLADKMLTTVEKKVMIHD
Nature of the data set: h5-HT7 receptor radioligand binding ([3H]5-CT). Conditions: pKi reported on a scale of 1 through 5; read-out: 5HT7 (pKi) (converted). The procedure, abridged:
as §1

Data set [2] concerns apomorphine-induced disruption of swimming in mice. Nature of the data set: Antagonism of apomorphine-induced disruption of swimming in mice. It is filed as in vivo. The source says: The antagonism of apomorphine-induced disruption of swimming in mice (Warawa, E. J. et al. (2001). Behavioral approach to nondyskinetic dopamine antagonists: identification of seroquel. J. Med. Chem., 44, 372-389) was used to assess test compounds. Apomorphine-treated mice fail to swim and remain in place, pawing the walls of the swimming chamber, or making abortive swims. Certain atypical antipsychotic compounds “normalize” the swimming behavior of such mice.
The animals (Swiss Webster, female, about 20 g; Charles River) were administered compounds of the invention (0.1 μg/kg-30 mg/kg ip) […] before they were dosed with apomorphine HCl at 1.25 mg/kg sc. Twenty seven minutes after test compound injection, and fifteen minutes after apomorphine injection, each mouse was placed into a circular swimming tank for 2 minutes and the number of “swims” were counted. The height of the tank is 15 cm and the diameter is 28 cm. A circular obstacle, 10.5 cm in diameter and 17 cm high was placed in the center of the tank creating a circular swimming channel 8.75 cm wide. The water level is 5.5 cm and the water was kept at room temperature (about 20° C.). Marks are placed on the floor and side of the tank 180 degrees apart. A “swim” was scored each time a mouse swims from one mark to the other and the median number of swims for all the mice was used as the score for that treatment.

Data set [3] relates to NMDA antagonist-induced deficits in prepulse inhibition in rats. Nature of the data set: Prepulse inhibition (PPI), NMDA antagonist (PCP)-induced deficit. Conditions: ip 45 min before, PCP 1.5 mg/kg s.c.
The mark [4] stands for this setting: pig liver esterase in potassium phosphate buffer, pH 7.4, pig liver esterase in phosphate buffer, no plasma protein.
[5] abbreviates: pig, pig liver esterase in human plasma protein solution.

The values that follow come from patent US20120178738A1, “DIBENZO [B,F] [1,4]OXAZAPINE COMPOUNDS” (ARYX THERAPEUTICS, INC., priority 2007, published 2012).

T1 sequence (P20309 whole entry): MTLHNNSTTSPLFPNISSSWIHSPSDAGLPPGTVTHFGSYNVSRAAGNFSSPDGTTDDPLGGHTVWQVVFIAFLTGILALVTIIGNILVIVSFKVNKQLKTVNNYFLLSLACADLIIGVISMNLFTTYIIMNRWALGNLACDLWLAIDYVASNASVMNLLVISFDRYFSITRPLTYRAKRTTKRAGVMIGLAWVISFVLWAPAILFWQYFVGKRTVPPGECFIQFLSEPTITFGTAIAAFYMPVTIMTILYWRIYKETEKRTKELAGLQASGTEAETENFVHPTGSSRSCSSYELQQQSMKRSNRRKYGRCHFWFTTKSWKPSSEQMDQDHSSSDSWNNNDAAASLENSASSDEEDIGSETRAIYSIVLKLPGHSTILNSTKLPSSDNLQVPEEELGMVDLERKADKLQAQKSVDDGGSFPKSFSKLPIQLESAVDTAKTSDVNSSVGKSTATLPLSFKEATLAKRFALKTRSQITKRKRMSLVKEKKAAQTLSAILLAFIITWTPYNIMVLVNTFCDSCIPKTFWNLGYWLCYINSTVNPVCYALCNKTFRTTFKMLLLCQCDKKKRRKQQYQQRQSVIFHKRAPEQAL

`CCOC(=O)CC1CN(C2=Nc3cc(Cl)ccc3Oc3ccccc32)CCN1` (centres unmarked) [A, (E)-ethyl 2-(4-(8-chlorodibenzo[b,f][1,4]oxazepin-11-yl)piperazin-2-yl)acetate]: the Ki at human M3 receptors is over 10 µM. Moreover, in data set [1], the “HLMs Enzyme” value was “Esterase” and the half-life stood at 30 min. In the data set with pig liver esterase (setting [4]), this compound had a half-life at 4.9 µM of under 5 min. In the data set on pig liver esterase (setting [5]), the half-life at 4.9 µM was 15 min.

`CCOC(=O)C[C@H]1CN(C2=Nc3cc(Cl)ccc3Oc3ccccc32)CCN1` [Compound K, (S,E)-ethyl 2-(4-(8-chlorodibenzo[b,f][1,4]oxazepin-11-yl)piperazin-2-yl)acetate]: at human M3 receptors, the “affinity to M3 receptors” value is on record as “very low affinity” and the Ki is over 10 µM. Also, the Ki at human 5HT7 receptors is 0.631 to 1.55 µM. Besides, in data set [2] (ip, apomorphine HCl 1.25 mg/kg sc), the “antagonizing the apomorphine-induced disruption of swimming, potency vs clozapine” value is reported as “more potent than clozapine”. The “NMDA antagonist-induced deficits in prepulse inhibition” value in data set [3] is given as “Restore”.

`O=C(O)C[C@H]1CN(C2=Nc3cc(Cl)ccc3Oc3ccccc32)CCN1` [Compound Q, (S,E)-2-(4-(8-chlorodibenzo[b,f][1,4]oxazepin-11-yl)piperazin-2-yl)acetic acid]: on human M3 receptors, the “affinity to M3 receptors” value is “very low affinity” and the Ki is over 10 µM. The “reversal of apomorphine-induced disruption of swimming” value in data set [2] (3 and 10 mg/kg) is reported as “reversed”. In addition, the “NMDA antagonist-induced deficits in prepulse inhibition” value in data set [3] is reported as “Restore”.

As to `O=C(C[C@H]1CN(C2=Nc3cc(Cl)ccc3Oc3ccccc32)CCN1)OC1CCCC1` [DR, (S,E)-cyclopentyl 2-(4-(8-chlorodibenzo[b,f][1,4]oxazepin-11-yl)piperazin-2-yl)acetate], the figures for the Ki at human M3 receptors and on human 5HT7 receptors were over 10 µM and 1.58 to 3.89 µM, respectively. For the same compound, the “HLMs Enzyme” value in data set [1] was “Esterase”. The half-life in data set [1] came to 30 min. For the same compound, the half-life at 4.9 µM in the data set on pig liver esterase (setting [4]) is under 5 min; in the data set on pig liver esterase (setting [5]) it was 15 min.

On to `O=C(C[C@H]1CN(C2=Nc3cc(Cl)ccc3Oc3ccccc32)CCN1)OC1CCOCC1` [DV, (S,E)-tetrahydro-2H-pyran-4-yl 2-(4-(8-chlorodibenzo[b,f][1,4]oxazepin-11-yl)piperazin-2-yl)acetate], for which the Ki at human M3 receptors was over 10 µM; at human 5HT7 receptors, 1.58 to 3.89 µM. Also, in data set [1], the “HLMs Enzyme” value is recorded as “Esterase”. Also, the half-life in data set [1] came out at 60 min. The values for the half-life at 4.9 µM in the data set on pig liver esterase (setting [4]) and in the data set with pig liver esterase (setting [5]) were under 5 min and 15 min, respectively.

With `CCC(C)OC(=O)C[C@H]1CN(C2=Nc3cc(Cl)ccc3Oc3ccccc32)CCN1C` (stereo partly drawn) [DY, sec-butyl 2-((S)-4-((E)-8-chlorodibenzo[b,f][1,4]oxazepin-11-yl)-1-methylpiperazin-2-yl)acetate], the Ki on human M3 receptors and at human 5HT7 receptors was over 10 µM in each case. The “HLMs Enzyme” value in data set [1] was “Esterase”. Further, in data set [1], the half-life is under 5 min. In addition, the half-life at 4.9 µM was under 5 min in the data set with pig liver esterase (setting [4]) and 30 min with pig liver esterase (setting [5]).

With `O=C(C[C@H]1CN(C2=Nc3cc(Cl)ccc3Oc3ccccc32)CCN1)O[C@H]1CCOC1` [EQ, (S)-tetrahydrofuran-3-yl 2-((S)-4-((E)-8-chlorodibenzo[b,f][1,4]oxazepin-11-yl)piperazin-2-yl)acetate], in data set [1], the “HLMs Enzyme” value is “Esterase” and the half-life amounted to 15 min. The same compound returned a half-life at 4.9 µM in the data set with pig liver esterase (setting [4]) of 5 min. The compound also showed a half-life at 4.9 µM with pig liver esterase (setting [5]) of 30 min.

`CCOC(=O)C[C@H]1CN(C2=Nc3cc(Cl)ccc3Oc3ccccc32)CCN1CCC(C)C` [ER, (S,E)-ethyl 2-(4-(8-chlorodibenzo[b,f][1,4]oxazepin-11-yl)-1-isopentylpiperazin-2-yl)acetate]: in data set [1], the “HLMs Enzyme” value is “Esterase” and the half-life was determined as 5 min. The compound further yielded a half-life at 4.9 µM in the data set with pig liver esterase (setting [4]) of under 5 min. In the data set on pig liver esterase (setting [5]), this compound had a half-life at 4.9 µM of 60 min.

For `CN1CCN(C2=Nc3cc(Cl)ccc3Oc3ccccc32)C[C@@H]1CC(=O)NCC(F)(F)C(F)(F)F` [EU, (S,E)-2-(4-(8-chlorodibenzo[b,f][1,4]oxazepin-11-yl)-1-methylpiperazin-2-yl)-N-(2,2,3,3,3-pentafluoropropyl)acetamide], the half-life in data set [1] worked out at 60 min. Also, in the data set on pig liver esterase (pig liver esterase in human plasma protein solution), the “Pig Liver Esterase (t1/2 min.) (+) plasma” value is on record as “Stable”. The “Pig Liver Esterase (t1/2 min.) (−) plasma” value in the data set with pig liver esterase (pig liver esterase in phosphate buffer, no plasma protein) was “Stable”.

For `CCOC(=O)CC1CN(C2=Nc3ccc(F)cc3Oc3ccccc32)CCN1` (centres unmarked) [J, (E)-ethyl 2-(4-(7-fluorodibenzo[b,f][1,4]oxazepin-11-yl)piperazin-2-yl)acetate], the Ki on human M3 receptors was over 10 µM. Further, in data set [1], the “HLMs Enzyme” value is listed as “Esterase”. In addition, in data set [1], the half-life came out at 10 min. For the same compound, the half-life at 4.9 µM in the data set with pig liver esterase (setting [4]) was under 5 min; with pig liver esterase (setting [5]), 15 min.

As to `CC(C)OC(=O)CC1CN(C2=Nc3cc(Cl)ccc3Oc3ccccc32)CCN1` (centres unmarked) [L, (E)-isopropyl 2-(4-(8-chlorodibenzo[b,f][1,4]oxazepin-11-yl)piperazin-2-yl)acetate], on human M3 receptors, the Ki was over 10 µM. Further, in data set [1], the half-life worked out at 30 min. For the same compound, the figures for the half-life at 4.9 µM with pig liver esterase (setting [4]) and with pig liver esterase (setting [5]) were under 5 min and 30 min, respectively.

In the case of `CC(C)OC(=O)CC1CN(C2=Nc3ccc(F)cc3Oc3ccccc32)CCN1` (centres unmarked) [M, (E)-isopropyl 2-(4-(7-fluorodibenzo[b,f][1,4]oxazepin-11-yl)piperazin-2-yl)acetate], on human M3 receptors, the Ki is over 10 µM. In data set [1], the half-life came to 30 min. The half-life at 4.9 µM is under 5 min in the data set on pig liver esterase (setting [4]) and 15 min in the data set with pig liver esterase (setting [5]).
